{"source": "patent US10451637B2", "about": "“Synthetic blood vessels and uses thereof” (THE UNIVERSITY OF BRITISH COLUMBIA, priority 2017, dated 2019)", "key": {"[1]": {"system": "glutamate release", "assay": "Neuronal functionality: glutamate release from quadripartite tissue (HPLC)", "type": "cell-based, human", "details": "50 nM KCl for 30 min", "procedure": "After 21 days in culture, quadripartite tissue were harvested in Hanks buffered salt solution (HBSS) and cut in half. One half is incubated in HBSS without potassium chloride (KCl) and one half in HBSS with […] KCl. After 30 minutes buffer was collected and run through a GABA/glutamate affinity column on a high pressure liquid chromatography (HPLC) previously calibrated with glutamate standard (0 to 2.5 uM).\nThe functionality of the neurons was further evaluated by measuring glutamate release in the absence and presence of […] of KCL for 30 min. Glutamate release was then measured by HPLC (FIG. 9A). […] Finally, the secretion of endogenous neuronally-produced Aβ40 and Aβ42 in quadripartite tissue (FIG. 9B) and in circulatory medium (FIG. 9C) as measured by commercial ELISA as above."}, "[2]": {"system": "endothelial barrier", "assay": "Endothelial barrier integrity, Evans blue injected into circulation loop", "type": "in vitro ADME, human", "details": "tripartite and bipartite vessels", "text": "The integrity of the endothelial barrier in tripartite vessels was functionally assessed by injecting Evans blue into the circulation loop and compared to bipartite vessels. As expected, Evans blue was excluded in both tripartite and bipartite vessels (FIG. 1A)."}, "[3]": {"system": "Aβ40", "assay": "Aβ40 transport into luminal circulating medium, tripartite vessels (ELISA)", "type": "cell-based, human", "details": "1 μM Aβ40, over 4 h, GW3965 0.8 μM 72 h (astrocyte apoE), HDL 200 μg/ml", "procedure": "(§1) Recombinant Aβ40 and Aβ42 peptides (California Peptide) were dissolved in hexafluoroisopropanol (HFIP). The HFIP was removed by evaporation overnight and stocks were stored at −20° C. On the day of the assay, soluble monomers were prepared by reconstituting the peptide film in dimethylsulfoxide (DMSO) to 5 mM, diluted further to […] in Roswell Park Memorial Institute (RPMI) medium without FBS. 100 μl of Aβ solution was injected in the tissue chamber containing 900 μl of DMEM (Gibco) without FBS to the desired concentration using a syringe under flow conditions. For luminal recovery, 100 μl circulating medium was collected at the indicated time.\n(§2) All experiments were conducted under an approved clinical protocol (UBC Clinical Ethics Research Board H14-03357). Upon receipt of written informed consent, 100 ml of fasted blood was collected from normolipidemic healthy donors into vacutainer tubes containing EDTA. Plasma HDL (1.063-1.21 g/ml) was isolated by sequential potassium bromide gradient ultracentrifugation. […] Total protein concentration was assessed using the bicinchoninic acid (BCA) assay (Thermofisher Scientific). […] ApoE concentrations were measured using enzyme linked immunosorbent assay (ELISA) as previously described (Fan et al. 2016 PLoS One. September 6; 11(9):e0162384). […] Fluorescence was read after 15 min at RT on an EnSpire 2300 Multilabel Plate Reader (325Ex/420Em). […]"}, "[4]": {"system": "Aβ40", "assay": "Aβ40 accumulation in vascular tissue, tripartite vessels (ELISA)", "type": "cell-based, human", "details": "after 24 h, relative to baseline tripartite conditions", "procedure": "as §1, §2"}, "[5]": {"system": "Aβ42", "assay": "Aβ42 accumulation in vascular tissue, tripartite vessels (ELISA)", "type": "cell-based, human", "details": "after 24 h, relative to baseline tripartite conditions", "procedure": "as §1, §2"}, "[6]": {"system": "Aβ42", "assay": "Aβ42 transport into luminal circulating medium, tripartite vessels (ELISA)", "type": "cell-based, human", "details": "1 μM Aβ42, over 4 h, GW3965 0.8 μM 72 h (astrocyte apoE), HDL 200 μg/ml", "procedure": "as §1, §2"}, "[7]": {"system": "native apoE secreted by astrocytes", "assay": "Astrocyte apoE secretion in tripartite vessels (ELISA)", "type": "cell-based, human", "details": "GW3965 circulated through lumen 72 h", "procedure": "All experiments were conducted under an approved clinical protocol (UBC Clinical Ethics Research Board H14-03357). Upon receipt of written informed consent, 100 ml of fasted blood was collected from normolipidemic healthy donors into vacutainer tubes containing EDTA. Plasma HDL (1.063-1.21 g/ml) was isolated by sequential potassium bromide gradient ultracentrifugation. The purity of the HDL preparations were verified by sodium dodecyl sulfate polyacrylamide gel electrophoresis (SDS-PAGE) followed by Coomassie blue staining to ensure no low-density lipoprotein (LDL) or albumin contamination. Total protein concentration was assessed using the bicinchoninic acid (BCA) assay (Thermofisher Scientific). Recombinant ApoE2 and ApoE4 were commercially purchased and solubilized following the manufacturer's instructions (ABCAM, apoE2 ab55210 and apoE4 ab50243). Secretion of endogenous ApoE from human astrocytes in tripartite vessels was induced by injecting 0.8 μM GW3965 in the circulation medium 72 h prior to addition of Aβ. ApoE concentrations were measured using enzyme linked immunosorbent assay (ELISA) as previously described (Fan et al. 2016 PLoS One. September 6; 11(9):e0162384). […] Fluorescence was read after 15 min at RT on an EnSpire 2300 Multilabel Plate Reader (325Ex/420Em). […]"}, "[8]": {"system": "NO synthase", "assay": "NO production by EC in tripartite vessels (conversion of L-3H-arginine to L-3H-citruline)", "type": "cell-based, human", "details": "1 mM L-NAME with Ach or HDL stimulation", "procedure": "Nitric oxide (NO) synthesis was measured using a commercial nitric oxide synthesis (NOS) activity assay kit (Caymenchemical). Briefly, a 2-3 mm ring of vascular tissue was mechanically ground in 150 μl of ice-cold homogenized buffer (25 mM Tris-Cl, pH7.4, 1 mM EDTA and 1 mM EGTA) and centrifuged 15 min at 4° C. at 10,000 g. The supernatant was aliquoted and incubated in reaction buffer containing 25 mM Tris-Cl, pH7.4, 0.25 mM EDTA, 0.6 mM CaCl2, 1 mM NADP, 200 nM calmodulin, 3 μM tetrahydrobiopterin, 1 μM flavin adenine dinucleotide, 1 μM flavin adenine monoucleotide and 0.2 μCi L-^3H-arginine; PerkinElmer) in the presence of 10 nM acetylcholine (Ach), 0.2 mg/ml HDL or 1 mM L-NG-nitroarginine methyl ester (L-NAME). After 60 min at 37° C., the reaction was stopped by adding 400 μl of stop buffer ([…] HEPES, 5 mM EDTA, pH 5.5). […] Scintillation mix (Ultimate Gold, PerkinElmer) was added to the supernatant and counted using LS6500 β-counter (Beckman Coulter). The percent citrulline formed was calculated as follows: % conversion=(cpm reaction-cpm background)/cpm total*100.\nThe functionality of EC and astrocytes within tripartite bioengineered vessels was evaluated by measuring nitric oxide (NO) produced by EC and native apoE secreted by astrocytes, which were genotyped as apoE3/apoE3. […]"}, "[9]": {"system": "Aβ42", "assay": "Aβ42 accumulation in vascular tissue, bipartite vessels (ELISA)", "type": "cell-based, human", "details": "1 μM Aβ42, 24 h, apoE ratio 25:1, HDL 200 μg/ml", "procedure": "as §1\n(§3) Luminal medium was collected from the circulation chamber and 5 mm tissue rings were crushed and lysed in radioimmunoprecipitation assay (RIPA) buffer (10 mM Tris pH 7.4, 150 mM NaCl, 1.0% NP-40, 1.0% sodium deoxycholate, 0.1% SDS and cOmplete protease inhibitor with EDTA (Roche)). Aβ40 (KHB3442, Life Tech) and Aβ42 (KHB3482, Life Tech) were quantified using commercial ELISAs and normalized to total protein concentration, measured by BCA.\n(§4) Bipartite vessels were prepared as described above. […]"}, "[10]": {"system": "Aβ40", "assay": "Aβ40 transport into luminal circulating medium, bipartite vessels (ELISA)", "type": "cell-based, human", "details": "1 μM Aβ40, over 4 h, apoE ratio 25:1 antelumen, HDL 200 μg/ml circulating", "procedure": "as §1, §3\n(§5) Genetic variation in APOE represents a common genetic risk for AD, with apoE4 considered detrimental and apoE2 protective (Zlokovic, 2013 JAMA Neurol 70(4):440-444). […]"}, "[11]": {"system": "Aβ40", "assay": "Aβ40 accumulation in vascular tissue, bipartite vessels (ELISA)", "type": "cell-based, human", "details": "1 μM Aβ40, 24 h, apoE ratio 25:1, HDL 200 μg/ml", "procedure": "as §1, §3, §5"}, "[12]": {"system": "Aβ42", "assay": "Aβ42 transport into luminal circulating medium, bipartite vessels (ELISA)", "type": "cell-based, human", "details": "1 μM Aβ42, over 4 h, apoE ratio 25:1 antelumen, HDL 200 μg/ml circulating", "procedure": "as §1, §3, §4"}}, "note": "Entries after “also recorded” stand apart in the source; their conditions may differ.", "data": [{"molecule": "[Cl-].[K+]", "note": "[KCl, potassium chloride]", "values": [{"measurement": "glutamate release", "setting": "[1]", "value": "increased glutamate release"}]}, {"molecule": "Cc1cc(-c2ccc(/N=N/c3ccc4c(S(=O)(=O)O)cc(S(=O)(=O)O)c(N)c4c3O)c(C)c2)ccc1/N=N/c1ccc2c(S(=O)(=O)O)cc(S(=O)(=O)O)c(N)c2c1O", "note": "[Evans blue]", "values": [{"measurement": "Evans blue exclusion (integrity of the endothelial barrier)", "setting": "[2]", "value": "excluded"}]}, {"molecule": "apoE: Native apoE3 secreted from astrocytes in tripartite vessels, stimulated with GW3965 (0.8 μM) for 72 h", "values": [{"measurement": "rate of Aβ40 transport", "setting": "[3]", "value": "neither apoE alone nor HDL alone modified the rate"}, {"measurement": "accumulation of Aβ40 within tissue", "setting": "[4]", "value": "neither apoE, HDL, nor both apoE and HDL affected accumulation"}, {"measurement": "accumulation of Aβ42 within tissue", "setting": "[5]", "value": "neither apoE, HDL, nor both apoE and HDL affected accumulation"}, {"measurement": "rate of Aβ42 transport", "setting": "[6]", "value": "neither apoE alone nor HDL alone modified the rate"}]}, {"molecule": "O=C(O)Cc1cccc(OCCCN(Cc2cccc(C(F)(F)F)c2Cl)CC(c2ccccc2)c2ccccc2)c1", "note": "[GW3965]", "values": [{"measurement": "secretion of native apoE", "setting": "[7]", "value": "significantly stimulated"}]}, {"molecule": "COC(=O)[C@@H](N)CCCNC(=N)N[N+](=O)[O-]", "note": "[L-NAME, L-NG-nitroarginine methyl ester]", "values": [{"measurement": "conversion of L-3H-arginine to L-3H-citruline in the presence of L-NAME", "setting": "[8]", "value": "the conversion was blocked"}]}, {"molecule": "apoE4: Recombinant ApoE4, commercially purchased (ABCAM ab50243)", "values": [{"measurement": "Aβ42 accumulated in tissue", "setting": "[9]", "value": "selectively elevated"}]}, {"molecule": "apoE2: Recombinant ApoE2, commercially purchased (ABCAM ab55210)", "values": [{"measurement": "Aβ40 transport (recovery into circulation medium)", "setting": "[10]", "value": "did not alter"}, {"measurement": "Aβ40 accumulated in tissue", "setting": "[11]", "value": "not significantly affected"}, {"measurement": "Aβ42 accumulated in tissue", "setting": "[9]", "value": "selectively decreased; also recorded: significantly reduced"}, {"measurement": "Aβ42 transport (recovery into circulation medium)", "setting": "[12]", "value": "did not alter"}]}]}
